In patent publication US11021511B2, “Cyclic dinucleotides as sting agonists” (Janssen Biotech, Inc., priority 2017, dated 2021):

Key:
[1] = test system: primary human PBMC; assay: PBMC activation, CD54 upregulation on monocytes by flow cytometry; format: cell-based; conditions: 20 μM, 48 h, relative to resting cells
Procedure: Concurrently, PBMC were isolated as described previously. To stimulate the PBMC, 10,000,000 cells were dispensed into 400 μL/well of flat-bottom, tissue culture treated, 24-well plates. Test compounds were added in a volume of 100 μL, then the cultures were incubated for 48 h at 37° C., 5% CO2. Supernatants were harvested. Cells were measured for activation marker upregulation using flow cytometery. Briefly, cells were stained with fluorescently labeled antibodies directed to CD56, CD19, CD3, CD8a, CD14, CD69, CD54, CD161, CD4 and CD80. Samples were analyzed on an Attune N×T flow cytometer (Thermo Fisher, Carlsbad, Calif.)
PBMCs were stimulated with 20 μM of CDN for 48 h. Cells were assessed by flow cytometry for upregulation of CD54 on monocytes. The fold increase in Mean Fluoresence Intensity was calculated relative to the levels on resting cells. The data is an average of two independent donors.

[2] = test system: THP1-Blue ISG cells; assay: Human interferon-β induction assay; format: cell-based; conditions: total cumulative IFN-β induction over the dose range tested (0.78 to 50 μM) in THP-1 Blue cells
Procedure: THP1-Blue ISG cells are used to measure the secretion of IFN-β into the culture supernatant following STING pathway activation. To run the assay, anti-IFN-β capture antibodies were coated on 96 well MultiArray plates (Mesoscale Discovery). After a one hour incubation, plates were washed and 50 μL supernatant from the STING human cell reporter assay plates or IFN-β standards were mixed with 20 μL Sulfotag-conjugated detection antibody in the coated plates. Plates were incubated, shaking for 2 h, washed, and read buffer was applied. Electrochemiluminescence was measured on the SectorImager.

[3] = test system: human STING pathway in THP1-ISG cells; assay: STING human cell reporter assay; format: cell-based; conditions: SEAP reporter, 24 h
Procedure: Agonism of the human STING pathway is assessed in THP1-ISG cells (Invivogen, cat #thp-isg) derived from human THP1 monocyte cell line by stable integration of an interferon regulatory factor (IRF)-inducible SEAP reporter construct. THP1-Blue ISG cells express a secreted embryonic alkaline phosphatase (SEAP) reporter gene under the control of an ISG54 minimal promoter in conjunction with five interferon (IFN)-stimulated response elements. As a result, THP1-Blue ISG cells allow the monitoring of IRF activation by determining the activity of SEAP. The levels of IRF-induced SEAP in the cell culture supernatant are readily assessed with alkaline phosphatase detection medium, a SEAP detection reagent. These cells are resistant to Zeocin. […] To run the assay, 60,000 cells were dispensed in 30 μL/well of a white, opaque bottom tissue culture treated 384-well plate.
Test compounds were added in a volume of 10 μL (1% DMSO final concentration). Compounds are initially prepared in 100% DMSO, spotted on an intermediate dilution plate and then diluted in media prior to transfer. The assay was incubated for 24 h at 37° C., 5% CO2 then plates were centrifuged at 1200 rpm (120×g) for 5 min. […]

[4] = target: human STING (Homo sapiens (Human), UniProt Q86WV6, H232R); assay: human STING SPA binding assay
Sequence of human STING (Q86WV6 139-379 H232R): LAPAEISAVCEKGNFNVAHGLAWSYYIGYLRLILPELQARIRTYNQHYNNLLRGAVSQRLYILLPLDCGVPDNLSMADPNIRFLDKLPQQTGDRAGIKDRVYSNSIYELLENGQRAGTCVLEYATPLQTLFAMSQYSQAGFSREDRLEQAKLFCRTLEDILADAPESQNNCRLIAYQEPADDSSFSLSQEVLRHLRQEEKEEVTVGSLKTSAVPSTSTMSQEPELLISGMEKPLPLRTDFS
Procedure: The HIS tag is cleaved after purification and prior to biotinylation.
Test compounds (80 nL) were added with an acoustic dispenser (EDC Biosystems) in 100% DMSO for a final assay concentration of 1% DMSO. Plates were centrifuged for 1 min and incubated for 60 min at room temperature. Finally, (2 μL) polystyrene streptavidin SPA beads (PerkinElmer RPNQ0306) were added and plates were sealed and centrifuged for 1 min at room temperature. Plates were dark adapted for 2 h and read on a ViewLux (Perkin Elmer) for 12 min per plate.

SMILES	human IFN-β (ranking value) [2]	also measured
Nc1nc2c(ncn2[C@@H]2O[C@@H]3COP(=O)(O)O[C@H]4[C@@H](O)[C@H](n5cnc6c(N)ncnc65)O[C@@H]4COP(=O)(O)O[C@@H]2[C@@H]3O)c(=O)[nH]1 [4-2′3′-cGAMP, (2′,3′)cyclic guanosine monophosphate-adenosine monophosphate]		MFI, fold increase of CD54 on monocytes [1]: 4.5
COC1C2COP(=O)(S)OC3C(COP(=O)(S)OC1C(n1cnc4c(=O)[nH]c(N)nc41)O2)OC(n1cnc2c(N)ncnc21)C3F (single isomer, unassigned) [Compound 6d]	3039	
COC1C2COP(=O)(S)OC3C(COP(=O)(S)OC1C(n1cnc4c(=O)[nH]c(N)nc41)O2)OC(n1cnc2c(N)ncnc21)C3F (single isomer, unassigned) [Compound 6b]	904	
COC1C2COP(=O)(S)OC3C(COP(=O)(S)OC1C(n1cnc4c(=O)[nH]c(N)nc41)O2)OC(n1cnc2c(N)ncnc21)C3F (single isomer, unassigned) [Compound 6c]	4266	
COC1C2COP(=O)(O)OC3C(COP(=O)(O)OC1C(n1cnc4c(=O)[nH]c(N)nc41)O2)OC(n1cnc2c(N)ncnc21)C3F (centres unmarked) [Compound 5]	1024	
COC1C2COP(=O)(S)OC3C(COP(=O)(S)OC1C(n1cnc4c(=O)[nH]c(N)nc41)O2)OC(n1cnc2c(N)ncnc21)C3F (single isomer, unassigned) [Compound 6a]	2427	
CC1(O)C2OP(=O)(O)OCC3OC(n4cnc5c(=O)[nH]c(N)nc54)C(OP(=O)(O)OCC2OC1n1cnc2c(N)ncnc21)C3O (centres unmarked) [Compound 1]		EC50 [3]: 1.81 µM; IC50 [4]: 54.5 µM
